Reference: ChEMBL document CHEMBL1201862, “PubChem BioAssay data set” (2004)
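Growth conditions: 96-well plates. Treatment: test compound, 48 hours, 5 concentrations. Analysis: linear interpolation between bracketing concentrations; unreached endpoints set to highest concentration. GI50: concentration for 50% inhibition of growth.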 The source made the active and inactive calls. No stated cut-off is given here; in the data, active = GI50 up to about 1.1 µM and inactive = higher.

What was measured:
Test in all cases: inhibition of tumour cell growth, NCI panel, 48 h
OVCAR-8 = system: OVCAR-8
MCF7 = system: MCF7
A549 = system: A549
NCI/ADR-RES = system: NCI/ADR-RES
SNB-19 = system: SNB-19
T47D = system: T47D
PC-3 = system: PC-3
MDA-MB-231 = system: MDA-MB-231
IGROV-1 = system: IGROV-1
HOP-62 = system: HOP-62
HOP-92 = system: HOP-92
UO-31 = system: UO-31
HCT-116 = system: HCT-116
A498 = system: A498
ACHN = system: ACHN
SF-539 = system: SF-539
RXF 393 = system: RXF 393
SW-620 = system: SW-620
SK-MEL-28 = system: SK-MEL-28
LOX IMVI = system: LOX IMVI
SK-MEL-2 = system: SK-MEL-2
SF-268 = system: SF-268
SK-MEL-5 = system: SK-MEL-5
OVCAR-3 = system: OVCAR-3
SK-OV-3 = system: SK-OV-3
MDA-MB-435 = system: MDA-MB-435
NCI-H226 = system: NCI-H226
K562 = system: K562
OVCAR-5 = system: OVCAR-5
SN12C = system: SN12C
786-0 = system: 786-0
RPMI-8226 = system: RPMI-8226
EKVX = system: EKVX
Hs-578T = system: Hs-578T
TK-10 = system: TK-10
HCT-15 = system: HCT-15
UACC-62 = system: UACC-62
HT-29 = system: HT-29
Malme-3M = system: Malme-3M
U-251 = system: U-251
NCI-H23 = system: NCI-H23
M14 = system: M14
HCC 2998 = system: HCC 2998
UACC-257 = system: UACC-257
DU-145 = system: DU-145
OVCAR-4 = system: OVCAR-4
SNB-75 = system: SNB-75
NCI-H522 = system: NCI-H522
COLO 205 = system: COLO 205
NCI-H460 = system: NCI-H460
BT-549 = system: BT-549
CAKI-1 = system: CAKI-1
HL-60 = system: HL-60
SF-295 = system: SF-295
MOLT-4 = system: MOLT-4
KM12 = system: KM12
CCRF-CEM = system: CCRF-CEM
SR = system: SR

In the case of `COC(=O)C1=C(C(=O)OC)C2(C)C=CC1O2` (centres undefined), the GI50 (OVCAR-8) is reported as 17.4 µM (inactive), the GI50 (MCF7) is reported as 31.5 µM (inactive) and the GI50 (A549) is reported as 99.8 µM (inactive). For the same compound, the GI50 (NCI/ADR-RES) was 19.6 µM (inactive), the GI50 (SNB-19) was > 100 µM (inactive) and the GI50 (T47D) was 3.44 µM (inactive). The GI50 (PC-3) was 21.4 µM (inactive), the GI50 (MDA-MB-231) was 16.6 µM (inactive) and the GI50 (IGROV-1) was 19.4 µM (inactive). The GI50 (HOP-62) was 34.9 µM (inactive), the GI50 (HOP-92) was 5.01 µM (inactive) and the GI50 (UO-31) was 4.51 µM (inactive). For the same compound, the GI50 (HCT-116) was 10.5 µM (inactive), the GI50 (A498) was 23.7 µM (inactive) and the GI50 (ACHN) was 5.78 µM (inactive). For the same compound, the GI50 (SF-539) was 18.9 µM (inactive), the GI50 (RXF 393) was 20.9 µM (inactive) and the GI50 (SW-620) was 4.68 µM (inactive). For the same compound, the GI50 (SK-MEL-28) was 16 µM (inactive), the GI50 (LOX IMVI) was 16.7 µM (inactive) and the GI50 (SK-MEL-2) was 21.4 µM (inactive). For the same compound, the GI50 (SF-268) was 31 µM (inactive), the GI50 (SK-MEL-5) was 18.5 µM (inactive) and the GI50 (OVCAR-3) was 0.55 µM (active). For the same compound, the GI50 (SK-OV-3) was > 100 µM (inactive), the GI50 (MDA-MB-435) was 19.1 µM (inactive) and the GI50 (NCI-H226) was 19.6 µM (inactive). The GI50 (K562) was 4.52 µM (inactive), the GI50 (OVCAR-5) was 17.6 µM (inactive) and the GI50 (SN12C) was 17.5 µM (inactive). The GI50 (786-0) was 3.78 µM (inactive), the GI50 (RPMI-8226) was 1.91 µM (inactive) and the GI50 (EKVX) was 22 µM (inactive). For the same compound, the GI50 (Hs-578T) was 26.4 µM (inactive), the GI50 (TK-10) was 2.49 µM (inactive) and the GI50 (HCT-15) was 16 µM. The GI50 (UACC-62) was 17.6 µM (inactive), the GI50 (HT-29) was 15.2 µM (inactive) and the GI50 (Malme-3M) was 2.92 µM (inactive). The GI50 (U-251) was 18 µM (inactive), the GI50 (NCI-H23) was 17.8 µM (inactive) and the GI50 (M14) was 17.3 µM (inactive). For the same compound, the GI50 (HCC 2998) was 16.2 µM (inactive), the GI50 (UACC-257) was 15.9 µM (inactive) and the GI50 (DU-145) was 17.9 µM (inactive). For the same compound, the GI50 (OVCAR-4) was 13.1 µM (inactive), the GI50 (SNB-75) was 24.3 µM (inactive) and the GI50 (NCI-H522) was 2 µM (inactive). The GI50 (COLO 205) was 4.22 µM (inactive), the GI50 (NCI-H460) was > 100 µM (inactive) and the GI50 (BT-549) was 23.1 µM (inactive).
`N#Cc1c(-c2ccc(Cl)cc2)[nH]c(=O)n(C2OC(CO)C(O)C(O)C2O)c1=O` (centres undefined) was tested, and the GI50 (OVCAR-8) was > 100 µM (inactive), the GI50 (CAKI-1) was > 100 µM (inactive) and the GI50 (MCF7) was > 100 µM (inactive). For the same compound, the GI50 (A549) was > 100 µM (inactive), the GI50 (NCI/ADR-RES) was > 100 µM (inactive) and the GI50 (SNB-19) was > 100 µM (inactive). The GI50 (T47D) was 74 µM (inactive), the GI50 (PC-3) was > 100 µM (inactive) and the GI50 (MDA-MB-231) was > 100 µM (inactive). For the same compound, the GI50 (IGROV-1) was 22.6 µM (inactive), the GI50 (HOP-62) was > 100 µM (inactive) and the GI50 (HOP-92) was 26.2 µM (inactive). The GI50 (UO-31) was > 100 µM (inactive), the GI50 (HCT-116) was > 100 µM (inactive) and the GI50 (A498) was 21.1 µM (inactive). The GI50 (ACHN) was > 100 µM (inactive), the GI50 (SF-539) was > 100 µM (inactive) and the GI50 (RXF 393) was > 100 µM (inactive). For the same compound, the GI50 (SW-620) was > 100 µM (inactive), the GI50 (SK-MEL-28) was > 100 µM (inactive) and the GI50 (SK-MEL-2) was > 100 µM (inactive). The GI50 (SF-268) was > 100 µM (inactive), the GI50 (SK-MEL-5) was > 100 µM (inactive) and the GI50 (OVCAR-3) was > 100 µM (inactive). For the same compound, the GI50 (SK-OV-3) was > 100 µM (inactive), the GI50 (MDA-MB-435) was > 100 µM (inactive) and the GI50 (NCI-H226) was 46 µM (inactive). For the same compound, the GI50 (HL-60) was > 100 µM (inactive), the GI50 (K562) was > 100 µM (inactive) and the GI50 (OVCAR-5) was > 100 µM (inactive). The GI50 (SN12C) was > 100 µM (inactive), the GI50 (786-0) was > 100 µM (inactive) and the GI50 (RPMI-8226) was > 100 µM (inactive). For the same compound, the GI50 (SF-295) was > 100 µM (inactive), the GI50 (EKVX) was 54.6 µM (inactive) and the GI50 (MOLT-4) was > 100 µM (inactive). The GI50 (Hs-578T) was > 100 µM (inactive), the GI50 (TK-10) was > 100 µM (inactive) and the GI50 (HCT-15) was over 100 µM. For the same compound, the GI50 (KM12) was > 100 µM (inactive), the GI50 (UACC-62) was > 100 µM (inactive) and the GI50 (HT-29) was > 100 µM (inactive). For the same compound, the GI50 (CCRF-CEM) was > 100 µM (inactive), the GI50 (U-251) was > 100 µM (inactive) and the GI50 (NCI-H23) was > 100 µM (inactive). For the same compound, the GI50 (M14) was > 100 µM (inactive), the GI50 (HCC 2998) was > 100 µM (inactive) and the GI50 (UACC-257) was > 100 µM (inactive). The GI50 (DU-145) was > 100 µM (inactive), the GI50 (OVCAR-4) was > 100 µM (inactive) and the GI50 (SNB-75) was 43.2 µM (inactive). For the same compound, the GI50 (NCI-H522) was > 100 µM (inactive), the GI50 (COLO 205) was > 100 µM (inactive) and the GI50 (NCI-H460) was > 100 µM (inactive). For the same compound, the GI50 (BT-549) was > 100 µM (inactive).
With `N=C(N)N/N=C/c1c(-c2ccc([N+](=O)[O-])cc2)nc2sccn12` the GI50 (OVCAR-8) was 2.12 µM (inactive), the GI50 (CAKI-1) was 2.43 µM (inactive) and the GI50 (MCF7) was 1.42 µM (inactive). The GI50 (A549) was 1.78 µM (inactive), the GI50 (NCI/ADR-RES) was > 100 µM (inactive) and the GI50 (SNB-19) was 1.38 µM (inactive). For the same compound, the GI50 (T47D) was 1.74 µM (inactive), the GI50 (PC-3) was 1.59 µM (inactive) and the GI50 (MDA-MB-231) was 1.68 µM (inactive). The GI50 (IGROV-1) was 8.63 µM (inactive), the GI50 (HOP-62) was 1.67 µM (inactive) and the GI50 (HOP-92) was 1.9 µM (inactive). For the same compound, the GI50 (UO-31) was 2.34 µM (inactive), the GI50 (HCT-116) was 1.63 µM (inactive) and the GI50 (A498) was 1.73 µM (inactive). For the same compound, the GI50 (ACHN) was 2.64 µM (inactive), the GI50 (SF-539) was 1.77 µM (inactive) and the GI50 (RXF 393) was 2.55 µM (inactive). The GI50 (SW-620) was 0.706 µM (active), the GI50 (SK-MEL-28) was 1.94 µM (inactive) and the GI50 (LOX IMVI) was 1.86 µM (inactive). The GI50 (SK-MEL-2) was 1.76 µM (inactive), the GI50 (SF-268) was 1.85 µM (inactive) and the GI50 (SK-MEL-5) was 3.23 µM (inactive). The GI50 (OVCAR-3) was 1.37 µM (inactive), the GI50 (SK-OV-3) was 1.64 µM (inactive) and the GI50 (MDA-MB-435) was 1.5 µM (inactive). For the same compound, the GI50 (NCI-H226) was 1.75 µM (inactive), the GI50 (HL-60) was 2.38 µM (inactive) and the GI50 (K562) was 0.973 µM (active). For the same compound, the GI50 (OVCAR-5) was 1.7 µM (inactive), the GI50 (SN12C) was 1.77 µM (inactive) and the GI50 (786-0) was 1.47 µM (inactive). For the same compound, the GI50 (RPMI-8226) was 5.27 µM (inactive), the GI50 (SF-295) was 1.39 µM (inactive) and the GI50 (EKVX) was 1.8 µM (inactive). The GI50 (MOLT-4) was 1.53 µM (inactive), the GI50 (Hs-578T) was 1.89 µM (inactive) and the GI50 (TK-10) was 1.82 µM (inactive). The GI50 (HCT-15) was 10.2 µM, the GI50 (KM12) was 0.759 µM (active) and the GI50 (UACC-62) was 1.87 µM (inactive). The GI50 (HT-29) was 1.53 µM (inactive), the GI50 (CCRF-CEM) was 0.673 µM (active) and the GI50 (Malme-3M) was 1.95 µM (inactive). For the same compound, the GI50 (U-251) was 1.58 µM (inactive), the GI50 (NCI-H23) was 1.71 µM (inactive) and the GI50 (M14) was 1.91 µM (inactive). For the same compound, the GI50 (HCC 2998) was 1.43 µM (inactive), the GI50 (UACC-257) was 1.93 µM (inactive) and the GI50 (DU-145) was 1.82 µM (inactive). The GI50 (OVCAR-4) was 1.46 µM (inactive), the GI50 (SNB-75) was 1.8 µM (inactive) and the GI50 (NCI-H522) was 2 µM (inactive). The GI50 (SR) was 1.73 µM (inactive), the GI50 (COLO 205) was 0.676 µM (active) and the GI50 (NCI-H460) was 2 µM (inactive). For the same compound, the GI50 (BT-549) was 1.82 µM (inactive).
